The nature of series [1]: Stability experiment using human liver microsomes. The note with it: 5 μmol/L, 0.5 mg/mL human liver microsomes with NADPH, 15 minutes, 37° C. The series is classed as in vitro ADME. The method, then: 5 μL of the compound of the present invention and each comparative compound (10 mmol/L DMSO solution) was diluted with 195 μL of 50% acetonitrile aqueous solution to prepare 250 μmol/L solutions of the compound of the present invention and comparative compound. 245 μL of 0.5 mg/mL human liver microsomes (0.1 mol/L pH 7.4 phosphate buffer solution) containing NADPH Co factor (NADPH Regenerating System Solution A (BD Bioscience) and NADPH Regenerating System Solution B (BD Bioscience), each diluted 10 times and 50 times with 0.1 mol/L pH 7.4 phosphate buffer (NADP+2.6 mmol/L)) were added to a reaction container that had been warmed in advance to 37° C. in a water bath, and pre-incubated for 5 minutes, after which 5 μL solution of the compound of the present invention and the comparative compound was added to initiate a reaction (final concentration 5 μmol/L). Immediately after initiation 20 μL was collected, and 20 μL was added to 180 μL of acetonitrile containing I.S. (internal standard (warfarin)) to terminate the reaction. 180 μL of 50% acetonitrile aqueous solution was added to this 20 μL on a plate with a protein exclusion filter, stirred and filtered by suction. The filtrate was used as a standard sample. After incubating the reaction solution for 15 minutes, 20 μL of a liver microsome solution was collected, and added to 180 μL of acetonitrile containing I.S. (internal standard (warfarin)) in order to terminate the reaction. 180 μL of 50% acetonitrile aqueous solution was added to this 20 μL on a plate with a protein exclusion filter, stirred and filtered by suction. The filtrate was used as a reaction sample. The survival ratio (%) was calculated by injecting 5 μL of sample solution into a LC-MS/MS (Thermo Scientific Discovery Max), dividing the peak area ratio of the reaction sample (the compound of the present invention and the comparative compound/I.S.) by the peak area ratio of the standard sample, and multiplying by 100.
(Microsomes from liver hold many membrane-bound enzymes, among them those of drug oxidation.)

The next series addresses T1, Human chymase (Homo sapiens, UniProt P23946).
T1 construct: purchased East Coast Biologics
T1 sequence (P23946 22-247): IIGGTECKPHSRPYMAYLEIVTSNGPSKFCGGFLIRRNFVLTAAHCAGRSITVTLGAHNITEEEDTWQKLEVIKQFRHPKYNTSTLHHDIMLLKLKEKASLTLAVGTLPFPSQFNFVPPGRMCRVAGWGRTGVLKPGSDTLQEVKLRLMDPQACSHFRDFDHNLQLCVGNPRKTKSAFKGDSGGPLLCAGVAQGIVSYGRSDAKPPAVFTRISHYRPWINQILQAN
Briefly: Measurement of human chymase enzyme inhibitory activity. The class given is biochemical. The note with it: for IC90: concentration at which 90% of enzyme activity was inhibited; for IC50: peptide substrate N-Succinyl-Ala-Ala-Pro-Phe-p-nitroanilide 2.5 mmol/L, 37° C., pH 7.6. The method, then:
Human Chymase Pure (hereunder called chymase; East Coast Biologics) was stored in a freezer at −20° C., and diluted with distilled water immediately prior to use. N-Succinyl-Ala-Ala-Pro-Phe-p-nitroanilide (hereunder called the peptide substrate; Sigma Aldrich) was prepared with dimethylsulfoxide (hereunder called DMSO) as a 50 mmol/L solution, and stored in a freezer at −20° C. The compound of the present invention and the comparative compounds were prepared with DMSO as 10 mmol/L solutions, and stored in a freezer at −20° C. On the day of measurement, the solutions of the compound of the present invention and the comparative compound were diluted in stages with 50% DMSO to 10 times concentration of the final target concentration, and the solution were prepared. 10 μL solutions of the compounds of the present invention and the comparative compounds, and 80 μL solution of a peptide substrate (final concentration 2.5 mmol/L) diluted with assay buffer (50 mmol/L Tris-HCl, 150 mmol/L NaCl, 50 units/mL heparin (pH 7.6)) were added to a 96-well microplate, incubated for 10 minutes at 37° C. 10 μL of chymase was added to a final concentration of 0.1 μg/L to initiate enzyme activity. Absorbance at 405 nm was monitored for 5 minutes at 30-second intervals, and the reaction speed (Δm O.D./minute) was measured. 10 μL of 50% DMSO was added to the control well and blank well in place of the solutions of the compound of the present invention and the comparative compound. Moreover, 10 μL of distilled water was added to the blank well in place of chymase. Given 100% as the value of the control well reaction speed minus the blank well reaction speed, the reaction speeds of the wells containing the compound of the present invention and the comparative compounds were calculated as percentages.

In series [2] the test system is HepG2 human liver cancer cell lines. Description: Measurement of cell toxicity using HepG2 human liver cancer cell lines (ATP, Celltiter Glo). The series is classed as cell-based. The note with it: 24 hours of exposure, ATP concentration; concentration that produced toxicity in 10% of cells. As for the experimental part:
(§1) The cells were then exposed to the compound of the present invention and the comparative compounds for 24 hours. The compound of the present invention and the comparative compounds were dissolved with DMSO, and then diluted 100 times with culture liquid comprising L-glutamine, non-essential amino acids and 1% bovine fetal serum which were added to minimum essential medium (MEM). […] The cells were dissolved with the assay buffer in the measurement kit, and the ATP concentration released from the cells was measured based on luciferin-luciferase enzyme activity. Light emission was measured with a SpectraMax plate reader (Molecular Device).
A general note: ATP-based viability assays read luminescence as a measure of living cells.

Experiment in series [3]: as above
The series is classed as cell-based. The note with it: human, HepG2 cells; 24 hours of exposure, ATP concentration. As for the experimental part:
as §1

The term IC90 denotes the concentration needed for an effect of 90%. The low end stands for an effect from little substance, the high end for a need for much substance. Broadly, the IC50 is the concentration needed to halve the response being measured. High values mean lower potency, low ones higher potency. On to `Cc1cccc2[nH]cc(Cc3c(-c4ccc5ccccc5c4C(=O)O)nc4ccccn34)c12` [Example 7, 2-[3-[(4-methyl-1H-indol-3-yl)methyl]imidazo[1,2-a]pyridin-2-yl]-1-naphthoic acid], for which the “Human liver Ms stability (survival ratio)” value in series [1] came to 93%. At Human chymase, this molecule came in with an IC90 of 63 nM and an IC50 of 1 nM. Moreover, the “Cell toxicity in HepG2 human liver cancer cell lines IC10” value (shortened to “Cell toxicity”) in series [2] worked out at 58000 nM. The molecule also showed an IC50 at 24 h in series [3] of 132000 nM.
As to `Cc1cccc2[nH]cc(Cc3c(-c4ccc5ccccc5c4C(=O)O)nc4ccc(F)cn34)c12` [Example 16, 2-{6-fluoro-3-[(4-methyl-1H-indol-3-yl)methyl]imidazo[1,2-a]pyridin-2-yl}-1-naphthoic acid], in series [1], the “Human liver Ms stability (survival ratio)” value amounted to 88%. On Human chymase, it took 6 nM to reach the 90% level (IC90) and the IC50 amounted to 1 nM. Moreover, the “Cell toxicity” value in series [2] was found to be 29000 nM. Moreover, in series [3], the IC50 at 24 h worked out at 131000 nM.
For `Cc1ccc2nc(-c3ccccc3C(=O)O)c(Cc3cn(C)c4cccc(C)c34)n2c1` [Example 11, 2-{3-[(1,4-dimethyl-1H-indol-3-yl)methyl]-6-methylimidazo[1,2-a]pyridin-2-yl}benzoic acid], in series [1], the “Human liver Ms stability (survival ratio)” value was 86%. For the same molecule, at Human chymase, the 90% effect level (IC90) was put at 270 nM and the IC50 is 23 nM. Besides, in series [2], the “Cell toxicity” value turned out to be 248000 nM. The molecule further displayed an IC50 at 24 h in series [3] above 400000 nM.
On Human chymase, `Cc1cccc2scc(Cc3c(SCCCC(=O)O)nc4ccccn34)c12` [Comparative Compound 2, 4-[3-(4-methyl-benzo[b]thiophen-3-ylmethyl)-imidazo[1,2-a]pyridin-2-ylsulfanyl]butanoic acid, reference compound] had an IC90 of 2800 nM and an IC50 of 340 nM. Besides, the “Cell toxicity” value in series [2] turned out to be 66000 nM. Also, it took 219000 nM to reach half-maximal inhibition in series [3] (IC50 at 24 h).
Consider `Cc1c(F)ccc2[nH]cc(Cc3c(-c4ccccc4C(=O)O)nc4ccccn34)c12` [Example 19, 2-{3-[(5-fluoro-4-methyl-1H-indol-3-yl)methyl]imidazo[1,2-a]pyridin-2-yl}benzoic acid], for which the “Human liver Ms stability (survival ratio)” value in series [1] is 100%. Further, at Human chymase, the IC90 worked out at 120 nM and the IC50 amounted to 11 nM. The “Cell toxicity” value in series [2] is 70000 nM. In addition, inhibition in series [3] was half-maximal at 247000 nM (IC50 at 24 h).
For the molecule `Cc1cccc2c1c(Cc1c(-c3ccccc3C(=O)O)nc3ccccn13)cn2C` [Example 13, 2-{3-[(1,4-dimethyl-1H-indol-3-yl)methyl]imidazo[1,2-a]pyridin-2-yl}benzoic acid], in series [1], the “Human liver Ms stability (survival ratio)” value is listed as 93%. For the same molecule, at Human chymase, the IC90 was determined as 200 nM and the IC50 is 28 nM. Further, the “Cell toxicity” value in series [2] turned out to be 135000 nM. Further, the IC50 at 24 h in series [3] was 424000 nM.
The corresponding values for `CCn1cc(Cc2c(-c3ccccc3C(=O)O)nc3ccccn23)c2c(C)cccc21` [Example 15, 2-{3-[(1-ethyl-4-methyl-1H-indol-3-yl)methyl]imidazo[1,2-a]pyridin-2-yl}benzoic acid] are 87%, 240 nM, 30 nM, 115000 nM and 267000 nM.
As to `O=C(O)c1ccccc1Sc1nc2ccccc2n1Cc1cccc2ccccc12` [Comparative Compound 3, 2-{[1-(1-naphthylmethyl)-1H-benzimidazol-2-yl]thio}benzoic acid, reference compound], on Human chymase, the IC90 was 1600 nM and the IC50 worked out at 130 nM. For the same molecule, in series [2], the “Cell toxicity” value is 29000 nM. The same molecule had an IC50 at 24 h in series [3] of 40000 nM.
For `Cc1cccc2c1c(Cc1c(-c3ccc4ccccc4c3C(=O)O)nc3ccccn13)cn2CCN1CCOCC1` [Example 23-(4), 2-[3-({4-methyl-1-[2-(4-morpholinyl)ethyl]-1H-indol-3-yl}methyl)imidazo[1,2-a]pyridin-2-yl]-1-naphthoic acid], the “Human liver Ms stability (survival ratio)” value in series [1] is reported as 100%. On Human chymase, this molecule registered an IC90 of 8 nM and an IC50 of 2 nM. The “Cell toxicity” value in series [2] is 79000 nM. For the same molecule, the IC50 at 24 h in series [3] was determined as 173000 nM.
Turning to `Cc1cccc2scc(Cn3c(SCCCC(=O)O)nc4ccccc43)c12` [Comparative Compound 1, 4-(1-((4-methylbenzothiophen-3-yl)methyl)benzimidazol-2-ylthio)butanoic acid, reference compound], the “Cell toxicity” value in series [2] was found to be 45000 nM. In series [3], this molecule registered an IC50 at 24 h of 81000 nM.
On Human chymase, `Cc1cccc2c1c(Cn1c(Sc3ccccc3C(=O)O)nc3ccccc31)cn2C` [Comparative Compound 4, 2-([1-[(1,4-dimethyl-1H-indol-3-yl)methyl]-1H-benzimidazol-2-yl]thio)benzoic acid, reference compound] gave an IC90 of 790 nM and an IC50 of 75 nM. Also, the “Cell toxicity” value in series [2] is 53000 nM. In series [3], this molecule showed an IC50 at 24 h of 84000 nM.

The values are drawn from patent US8569504B2, “Imidazopyridine compound” (Ono Pharmaceutical Co., Ltd., priority 2009, dated 2013).
